{
  "source": "PubChem BioAssay (NCI)",
  "test_in_all_cases": "NCI-60 cell line screen, 48 h",
  "key": {"[1]": {"test_system": "MCF7 breast"}, "[2]": {"test_system": "OVCAR-4 ovarian"}, "[3]": {"test_system": "SF-268 CNS"}, "[4]": {"test_system": "786-0 renal"}, "[5]": {"test_system": "OVCAR-8 ovarian"}, "[6]": {"test_system": "BT-549 breast"}, "[7]": {"test_system": "RPMI-8226 leukemia"}, "[8]": {"test_system": "HCT-116 colon"}, "[9]": {"test_system": "K-562 leukemia"}, "[10]": {"test_system": "IGROV1 ovarian"}, "[11]": {"test_system": "U251 CNS"}, "[12]": {"test_system": "UACC-62 melanoma"}, "[13]": {"test_system": "SK-OV-3 ovarian"}, "[14]": {"test_system": "NCI-H522 lung"}, "[15]": {"test_system": "NCI/ADR-RES ovarian"}, "[16]": {"test_system": "MDA-MB-231 breast"}, "[17]": {"test_system": "NCI-H23 lung"}, "[18]": {"test_system": "SR leukemia"}, "[19]": {"test_system": "M14 melanoma"}, "[20]": {"test_system": "HOP-62 NSCLC"}, "[21]": {"test_system": "SK-MEL-5 melanoma"}, "[22]": {"test_system": "SK-MEL-2 melanoma"}, "[23]": {"test_system": "SNB-75 CNS"}, "[24]": {"test_system": "SF-295 CNS"}, "[25]": {"test_system": "CAKI-1 renal"}, "[26]": {"test_system": "CCRF-CEM leukemia"}, "[27]": {"test_system": "SN12C renal"}, "[28]": {"test_system": "UO-31 renal"}, "[29]": {"test_system": "HCC-2998 colon"}},
  "note": "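Protocol summary: plate cells (96-well), add compound at 5 concentrations, incubate 48 h, interpolate endpoints linearly. GI50: concentration for 50% inhibition of growth. TGI marks complete inhibition of growth.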",
  "data": [
    {"smiles": "Oc1[nH]c2cc(Cl)ccc2c1/C=c1/ccc2c(c1)N=C(c1cc(F)cc(F)c1)N=2", "values": [
      {"measurement": "TGI", "setting": "[1]", "result": 11.3, "unit": "µM"},
      {"measurement": "GI50", "setting": "[2]", "result": 4.25, "unit": "µM"},
      {"measurement": "TGI", "setting": "[2]", "result": 16.1, "unit": "µM"},
      {"measurement": "GI50", "setting": "[3]", "result": 2.35, "unit": "µM"},
      {"measurement": "TGI", "setting": "[3]", "result": 11.7, "unit": "µM"},
      {"measurement": "GI50", "setting": "[4]", "result": 3.31, "unit": "µM"},
      {"measurement": "TGI", "setting": "[4]", "result": 12.8, "unit": "µM"},
      {"measurement": "GI50", "setting": "[5]", "result": 2.92, "unit": "µM"},
      {"measurement": "TGI", "setting": "[5]", "result": 10.3, "unit": "µM"},
      {"measurement": "GI50", "setting": "[6]", "result": 2.1, "unit": "µM"},
      {"measurement": "TGI", "setting": "[6]", "result": 10, "unit": "µM"},
      {"measurement": "GI50", "setting": "[7]", "result": 2.38, "unit": "µM"},
      {"measurement": "TGI", "setting": "[7]", "result": 6.28, "unit": "µM"},
      {"measurement": "GI50", "setting": "[8]", "result": 1.17, "unit": "µM"},
      {"measurement": "TGI", "setting": "[8]", "result": 3.17, "unit": "µM"},
      {"measurement": "GI50", "setting": "[9]", "result": 0.821, "unit": "µM"},
      {"measurement": "TGI", "setting": "[9]", "result": 12.1, "unit": "µM"},
      {"measurement": "GI50", "setting": "[10]", "result": 3.29, "unit": "µM"},
      {"measurement": "TGI", "setting": "[10]", "result": 17.9, "unit": "µM"},
      {"measurement": "GI50", "setting": "[11]", "result": 1.06, "unit": "µM"},
      {"measurement": "TGI", "setting": "[11]", "result": 2.89, "unit": "µM"},
      {"measurement": "GI50", "setting": "[12]", "result": 0.71, "unit": "µM"},
      {"measurement": "TGI", "setting": "[12]", "result": 12.4, "unit": "µM"},
      {"measurement": "GI50", "setting": "[13]", "result": 2.38, "unit": "µM"},
      {"measurement": "TGI", "setting": "[13]", "result": 7.95, "unit": "µM"},
      {"measurement": "GI50", "setting": "[14]", "result": 1.19, "unit": "µM"},
      {"measurement": "TGI", "setting": "[14]", "result": 3.38, "unit": "µM"},
      {"measurement": "GI50", "setting": "[15]", "result": 2.03, "unit": "µM"},
      {"measurement": "TGI", "setting": "[15]", "result": 6.75, "unit": "µM"},
      {"measurement": "GI50", "setting": "[16]", "result": 2.78, "unit": "µM"},
      {"measurement": "TGI", "setting": "[16]", "result": 12.3, "unit": "µM"},
      {"measurement": "GI50", "setting": "[17]", "result": 2.47, "unit": "µM"},
      {"measurement": "TGI", "setting": "[17]", "result": 13, "unit": "µM"},
      {"measurement": "GI50", "setting": "[18]", "result": 2.22, "unit": "µM"},
      {"measurement": "TGI", "setting": "[18]", "result": 8.53, "unit": "µM"},
      {"measurement": "GI50", "setting": "[19]", "result": 1.52, "unit": "µM"},
      {"measurement": "TGI", "setting": "[19]", "result": 3.69, "unit": "µM"},
      {"measurement": "GI50", "setting": "[20]", "result": 1.35, "unit": "µM"},
      {"measurement": "TGI", "setting": "[20]", "result": 8.44, "unit": "µM"},
      {"measurement": "GI50", "setting": "[21]", "result": 1.68, "unit": "µM"},
      {"measurement": "TGI", "setting": "[21]", "result": 7.59, "unit": "µM"},
      {"measurement": "GI50", "setting": "[22]", "result": 2.08, "unit": "µM"},
      {"measurement": "TGI", "setting": "[22]", "result": 7.03, "unit": "µM"},
      {"measurement": "GI50", "setting": "[23]", "result": 1.6, "unit": "µM"},
      {"measurement": "TGI", "setting": "[23]", "result": 6.07, "unit": "µM"},
      {"measurement": "GI50", "setting": "[24]", "result": 0.509, "unit": "µM"},
      {"measurement": "TGI", "setting": "[24]", "result": 2.84, "unit": "µM"},
      {"measurement": "GI50", "setting": "[25]", "result": 1.73, "unit": "µM"},
      {"measurement": "TGI", "setting": "[25]", "result": 16.6, "unit": "µM"},
      {"measurement": "GI50", "setting": "[26]", "result": 0.657, "unit": "µM"},
      {"measurement": "TGI", "setting": "[26]", "result": 3.47, "unit": "µM"},
      {"measurement": "GI50", "setting": "[27]", "result": 3.89, "unit": "µM"},
      {"measurement": "TGI", "setting": "[27]", "result": 16.5, "unit": "µM"},
      {"measurement": "GI50", "setting": "[28]", "result": 3.68, "unit": "µM"},
      {"measurement": "TGI", "setting": "[28]", "result": 19, "unit": "µM"},
      {"measurement": "GI50", "setting": "[29]", "result": 4.86, "unit": "µM"},
      {"measurement": "TGI", "setting": "[29]", "result": 17.2, "unit": "µM"}
    ]}
  ]
}
